Entries after “also recorded” stand apart in the source; their conditions may differ. Like-named read-outs stand apart in the source and are kept apart here.
Columns and labels:
OATP1B3 F555H = settings: F555H mutation; cited from earlier work
OATP1B1 [1] = settings: cited from earlier work
OATP1B1 H555F = settings: H555 F variant; cited from earlier work
OATP1B1 [2] = type: cell-based, human; settings: HEK293 over-expressing OATP1B1; substrate not specified at the place

O=C(O[C@@H]1Cc2c(O)cc(O)cc2O[C@@H]1c1cc(O)c(O)c(O)c1)c1cc(O)c(O)c(O)c1 [EGCG, epigallocatechin gallate]
EGCG transport by OATP1B3 (OATP1B3 F555H): significantly reduced

C=CC1=C(C)/C(=C/c2[nH]c(Cc3[nH]c(/C=C4\NC(=O)C(C)=C4C=C)c(C)c3CCC(=O)O)c(CCC(=O)O)c2C)NC1=O [bilirubin]
inhibition of and transport by OATP1B1 (OATP1B1 [1]; no reference given): is a natural transport substrate, but does not inhibit transport

CO[C@H]1/C=C/O[C@@]2(C)Oc3c(C)c(O)c4c(O)c(c(/C=N/N5CCN(C)CC5)c(O)c4c3C2=O)NC(=O)/C(C)=C\C=C\[C@H](C)[C@H](O)[C@@H](C)[C@@H](O)[C@@H](C)[C@H](OC(C)=O)[C@@H]1C [rifampicin]
inhibition of and transport by OATP1B1 (OATP1B1 [1]): both inhibits and is transported by OATP1B1

cholecystokinin-8: called an OATP1B1-specific substrate
uptake by OATP1B1 (OATP1B1 H555F): abolished

B1: Sb5: synthetic nanobody (sybody) that binds to OATP1B1 in both its apo and cyclosporine A-bound forms (antibody, V domains shown)
VH: QVQLVESGGGLVQAGGSLRLSCAASGFPVNLSYMHWYRQAPGKEREWVAAISSWGWHTEYADSVKGRFTISRDNAKNTVYLQMNSLKPEDTAVYYCHVRVGRSYFGQGTQVSVSA
inhibition of OATP1B1 substrate transport (OATP1B1 [2]): does not impair the ability of OATP1B1 to transport substrates; also recorded: did not inhibit substrate transport by OATP1B1

Reference: PMC12127550 (The Journal of Biological Chemistry, 2025)
